From publication PMC7914775, “Molecules Present in Plant Essential Oils for Prevention and Treatment of Colorectal Cancer (CRC)” (Molecules, 2021)
Like-named read-outs stand apart in the source and are kept apart here.

Assays:
Caco-2 cell line = assay: cells; set-up: effect on cell growth, MTT: dose or concentration left out as unconfirmed; conditions: for IC50: Caco-2, MTT
Protocol: (§1) Briefly, cells were firstly seeded, in triplicate, into 96-well culture plates at 10^4 cells/well. […] Ethanol 99.5% was used to solubilize essential oils. The final concentration of ethanol in the cell medium was kept lower than 0.1%. Ethanol 0.1% was added to the control (untreated) cells.
(§2) The cytotoxicity of the essential oil single components was evaluated by MTT assay on 96-well plates. After 24, 48 and 72 h, MTT (dissolved in PBS) was diluted with fresh medium at final concentration of 0.5 mg/mL, added to cell culture and incubated at 37 °C. After 4 h, the medium was removed and 100 μL of DMSO was added. After 1 h at room temperature, the purple formazan crystals were dissolved, and the plates were read in a microplate reader (Victor3™, Perkin Elmer, Waltham, MA, USA). Absorbance was measured at 595 nm. Cell growth inhibition rate was calculated as a percentage of treated cells on control ones.

NCM-460 cell line = assay: cells; conditions: for concentration affecting cell viability: NCM-460, after 24 h
Protocol: as §1, §2

SW-620 cell line = assay: MTT cell viability assay, SW-620; conditions: for IC50: SW-620, MTT
Protocol: Briefly, cells were firstly seeded, in triplicate, into 96-well culture plates at 10^4 cells/well. […] The final concentration of ethanol in the cell medium was kept lower than 0.1%. Ethanol 0.1% was added to the control (untreated) cells.
as §2

Caco-2 cells [1] = assay: Cell cycle analysis (propidium iodide, flow cytometry), Caco-2; assay type: cell-based, human; conditions: Caco-2, 72 h; 75 µM cinnamaldehyde, 800 µM eugenol; vs control
Protocol: (§3) Cell cycle analysis and apoptosis detection assay were only performed in cell treated with cinnamaldehyde and eugenol, at dosages that were not found toxic on the NCM-460 cell line. Briefly, 100,000 cells were seeded into 6-well cultured plates and allowed to attach for 24 h. After that, cells were treated for 72 h as previously described. Then, the cells were collected for the cell cycle analysis, washed twice with PBS, fixed with 70% ethanol, and incubated at −20 °C overnight. Then, the cells were washed with 500 µL of PBS, centrifuged at 1500 rpm for 5 min, resuspended in 500 μL of PBS containing 50 μg/mL RNase A and incubated for 30 min at room temperature. Cells were then centrifuged at 1500 rpm for 5 min, resuspended in PBS, and 10 µg/mL of Propidium iodide was added. Detection of apoptotic cells was performed with Annexin V/Propidium iodide detection kit, following the manufacturer’s instructions (Bender Medsystems, Wien, Austria). Cells were analyzed by flow cytometry (FACS) (Cytoflex, Beckman Coulter, CA, USA).

Caco-2 cells [2] = assay: in vitro; assay type: cell-based, human; conditions: for cell death, Annexin V/PI: Caco-2, 72 h, 800 µM eugenol, 75 µM cinnamaldehyde
Protocol: as §3

NCM-460 cells [3] = assay: in vitro; assay type: cell-based, human; conditions: NCM-460, 72 h; 800 µM eugenol, 75 µM cinnamaldehyde
Protocol: as §3

SW-620 cells [4] = assay: in vitro; assay type: cell-based, human; conditions: for Q2-UL cells (upper left quadrant, necrosis): SW620, 72 h, eugenol 800 µM (E800), cinnamaldehyde 75 µM (A75); for cell death, Annexin V/PI: SW-620, 72 h, 800 µM eugenol, 75 µM cinnamaldehyde
Protocol: as §3

SW-620 cells [5] = assay: Cell cycle analysis (propidium iodide, flow cytometry), SW-620; assay type: cell-based, human; conditions: SW-620, 72 h; 75 µM cinnamaldehyde, 800 µM eugenol; vs control
Protocol: as §3

NCM-460 cells [6] = assay: Cell cycle analysis (propidium iodide, flow cytometry), NCM-460; assay type: cell-based, human; conditions: NCM-460, 72 h; 75 µM cinnamaldehyde, 800 µM eugenol; vs control
Protocol: as §3

Caco-2 cells [7] = conditions: viability of Caco-2 cells; cited from earlier work
in vitro = assay type: cell-based, human; conditions: human, eugenol 800 µM (E800), cinnamaldehyde 75 µM (A75), read-out: Q2-LL cells (lower left, viable, AnnexinV −/PI −)
Protocol: as §3

[8] = Homo sapiens, Caco-2, 24 h, 24 h
[9] = Homo sapiens, Caco-2, 72 h, 72 h
[10] = Homo sapiens, SW-620, 24 h, 24 h
[11] = Homo sapiens, SW-620, 72 h, 72 h
[12] = Caco2, 72 h, eugenol 800 µM (E800), cinnamaldehyde 75 µM (A75)

## C=C1CC/C=C(\C)CC[C@@H]2[C@@H]1CC2(C)C [β-caryophyllene]
Caco-2 cell line; Caco-2
  effect on cell growth, MTT: increased cell growth
NCM-460 cell line; NCM-460, 240 and 360 µM at 24 h and 120–260 µM at 72 h
  effect on viability, MTT: affected the viability
SW-620 cell line; SW-620, 260 µM at 24, 48 and 72 h
  effect on viability, MTT: affected the viability

## O=C/C=C/c1ccccc1 [cinnamaldehyde]
Caco-2 cell line; Caco-2, 75 (µg/mL in the source), 48 and 72 h
  effect on viability, MTT: reduced viability
Caco-2 cell line; 24 h
  IC50: 166 µM
Caco-2 cell line; 72 h
  IC50: 86.9 µM
Caco-2 cell line; [8]
  IC50: 166 µM
Caco-2 cell line; [9]
  IC50: 87 µM
Caco-2 cell line; IC50 NCM460 / IC50 Caco2, 24 h
  Selectivity Index: 1.31
Caco-2 cell line; IC50 NCM460 / IC50 Caco2, 72 h
  Selectivity Index: 0.96
NCM-460 cell line; Homo sapiens, NCM460, 24 h, NCM-460, MTT, 24 h
  IC50: 218 µM
NCM-460 cell line; Homo sapiens, NCM460, 72 h, NCM-460, MTT, 72 h
  IC50: 83 µM
NCM-460 cell line; NCM-460, MTT, 24 h
  IC50: 218 µM
NCM-460 cell line; NCM-460, MTT, 72 h
  IC50: 83.2 µM
Caco-2 cells [1]
  effect on cell cycle progression: reduction of G2 phase
Caco-2 cells [2]
  cell death, Annexin V/PI: both late apoptosis and necrosis were detected
NCM-460 cells [3]
  cell death, Annexin V/PI: did not induce
SW-620 cells [4]
  Q2-UL cells (upper left quadrant, necrosis): 15.98%
  cell death, Annexin V/PI: both late apoptosis and necrosis were detected
SW-620 cell line; [10]
  IC50: 92 µM
SW-620 cell line; [11]
  IC50: 92 µM
SW-620 cell line; IC50 NCM460 / IC50 SW620, 24 h
  Selectivity Index: 2.37
SW-620 cell line; IC50 NCM460 / IC50 SW620, 72 h
  Selectivity Index: 0.9
SW-620 cell line; SW-620, 75 (µg/mL in the source), any timepoint
  effect on viability, MTT: reduced viability
SW-620 cell line; 24 h
  IC50: 92 µM
SW-620 cell line; 72 h
  IC50: 92.1 µM
SW-620 cells [5]
  effect on cell cycle progression: G1 accumulation
NCM-460 cells [6]
  effect on cell cycle progression: did not find differences

## Cc1ccc(C(C)C)cc1O [carvacrol]
Caco-2 cell line; Caco-2, same range of concentrations used by Llana-Ruiz-Cabello and co-workers [19]
  effect on viability, MTT: reduced Caco-2 cell viability
NCM-460 cell line
  concentration affecting cell viability: 500 µM
SW-620 cell line; SW-620, 24 and 48 h, up to the maximum tested concentration of 750 μM
  toxicity, MTT: no toxicity
SW-620 cell line; SW-620, 250, 500 and 750 µM, only after 72 h
  cytotoxic effect, MTT: modest statistically significant toxicity

## Cc1ccc(C(C)C)c(O)c1 [thymol]
NCM-460 cell line
  concentration affecting cell viability: 165 µM
SW-620 cell line; SW-620, 660 and 1320 µM
  cytotoxic effect, MTT: cytotoxic effect was also detectable
SW-620 cell line; SW-620, after 24 h
  toxic concentration: 660 µM
Caco-2 cells [7]
  IC50: 700 µM

## C=CCc1ccc(O)c(OC)c1 [eugenol]
Caco-2 cell line; 24 h
  IC50: 485 µM
Caco-2 cell line; 72 h
  IC50: 730 µM
Caco-2 cell line; Caco-2, lower doses from 100 to 400 µM
  effect on cell proliferation, MTT: seemed to stimulate
Caco-2 cell line; [8]
  IC50: 458 µM
Caco-2 cell line; [9]
  IC50: 730 µM
Caco-2 cell line; IC50 NCM460 / IC50 Caco2, 24 h
  Selectivity Index: 2.82
Caco-2 cell line; IC50 NCM460 / IC50 Caco2, 72 h
  Selectivity Index: 1.60
NCM-460 cell line; Homo sapiens, NCM460, 24 h
  IC50: 1370 µM
NCM-460 cell line; Homo sapiens, NCM460, 72 h
  IC50: 1160 µM
NCM-460 cell line; NCM-460, lower doses from 100 to 400 µM
  effect on cell proliferation, MTT: seemed to stimulate
Caco-2 cells [1]
  effect on cell cycle progression: reduction of G2 phase
Caco-2 cells [2]; [12]
  Q2-UL cells (upper left quadrant, necrosis): 25.95%
  Q2-UR cells (upper right quadrant, late apoptosis): 5.55%
Caco-2 cells [2]
  cell death, Annexin V/PI: both late apoptosis and necrosis were detected
NCM-460 cells [3]
  cell death, Annexin V/PI: did not induce
SW-620 cells [4]
  Q2-UL cells (upper left quadrant, necrosis): 17.12%
  cell death, Annexin V/PI: both late apoptosis and necrosis were detected
In vitro; Caco2, 72 h
  viability at 72 h: 67.5%
In vitro; NCM460, 72 h
  viability at 72 h: 95.4%
In vitro; SW620, 72 h
  viability at 72 h: 81.3%
SW-620 cell line; [10]
  IC50: 918 µM
SW-620 cell line; [11]
  IC50: 866 µM
SW-620 cell line; IC50 NCM460 / IC50 SW620, 24 h
  Selectivity Index: 1.49
SW-620 cell line; IC50 NCM460 / IC50 SW620, 72 h
  Selectivity Index: 1.34
SW-620 cell line; 24 h
  IC50: 918 µM
SW-620 cell line; 72 h
  IC50: 866 µM
SW-620 cells [5]
  effect on cell cycle progression: G1 accumulation
NCM-460 cells [6]
  effect on cell cycle progression: did not find differences

## CC(C)=CCC/C(C)=C/CO [Geraniol]
Caco-2 cell line; Caco-2, 100–800 µM, 72 h
  effect on cell proliferation, MTT: increase cell proliferation
Caco-2 cell line; human, 72 h, 1000 µM
  cytotoxic effect, MTT: not on the Caco-2 cells
NCM-460 cell line; NCM-460, 100–800 µM, 48–72 h
  effect on cell proliferation, MTT: increase cell proliferation
